The source of these data is paper PMC6410080 (Viruses, 2019).

Structures can show the parent of a compound that is named as a salt.

The assay has as its system RRV. The experiment in a line: microbe, parasite or virus in culture. Format: cell-based. The settings on record: Ross River virus, HeLa Kyoto, read-out: IC50 RRV.
Take `CCN(CC)Cc1cc(Nc2ccnc3cc(Cl)ccc23)ccc1O` [Amodiaquine, Amodiaquine dihydrochloride dihydrate]: the IC50 stood at 6.2 µM.

`CC(C)COCC(CN(Cc1ccccc1)c1ccccc1)N1CCCC1` (stereo not shown) [Bepridil, Bepridil hydrochloride]: the IC50 came out at 4.6 µM.

On to `CNc1ccc2oc(C[C@H]3O[C@@]4(CC[C@H]3C)O[C@H]([C@H](C)C(=O)c3ccc[nH]3)[C@H](C)C[C@H]4C)nc2c1C(=O)O` [Calcimycin], for which the IC50 turned out to be 6.5 µM.

Take `O=C1c2c(O)ccc(O)c2C(=O)c2c(NCCNCCO)ccc(NCCNCCO)c21` [Mitoxantrone, Mitoxantrone dihydrochloride]: the IC50 was 4.9 µM.

`CC[C@@]1([C@@H]2O[C@@H]([C@H]3O[C@@](O)(CO)[C@H](C)C[C@@H]3C)C[C@@H]2C)CC[C@H]([C@]2(C)CC[C@]3(C[C@H](O)[C@@H](C)[C@@H]([C@@H](C)[C@@H](OC)[C@H](C)C(=O)O)O3)O2)O1` [Monensin, Monensin sodium salt]: the concentration for half-maximal inhibition (IC50) amounted to 4.6 µM.

Take `O=C(Nc1ccc([N+](=O)[O-])cc1Cl)c1cc(Cl)ccc1O` [Niclosamide]: the IC50 stood at 0.82 µM.

As for `C=C1C(=O)O[C@H]2[C@H]1CC/C(C)=C/CC[C@@]1(C)O[C@@H]21` [Parthenolide], the 50% inhibitory concentration (IC50) turned out to be 7.7 µM.

The term IC50 denotes the concentration needed to halve the response being measured.
